How the values were obtained:
[1] = molecular target: T1, MLXBIR3SG (Homo sapiens, UniProt Q96CA5, S150G); assay: Fluorescence polarization peptide binding assay, MLXBIR3SG; details: 0.06 μM MLXBIR3SG, 5 nM AVP-diPhe-FAM probe; for Ki: Ki determined from IC50
T1 sequence (Q96CA5 with tags, fused parts or gaps S150G): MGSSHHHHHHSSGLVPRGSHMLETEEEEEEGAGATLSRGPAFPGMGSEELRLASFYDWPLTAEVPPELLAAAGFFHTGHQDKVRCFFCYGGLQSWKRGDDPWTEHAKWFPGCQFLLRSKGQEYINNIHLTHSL
Experimental: In the following experiments was used a chimeric BIR domain referred to as MLXBIR3SG in which 11 of 110 residues correspond to those found in XIAP-BIR3, while the remainder correspond to ML-IAP-BIR. […] The improved caspase-9 inhibition of the chimeric BIR domain MLXBIR3SG has been correlated with increased inhibition of doxorubicin-induced apoptosis when transfected into MCF7 cells.
(§1) Polarization experiments were performed on an Analyst HT 96-384 (Molecular Devices Corp.) according to the procedure of Keating, S. M., Marsters, J, Beresini, M., Ladner, C., Zioncheck, K., Clark, K., Arellano, F., and Bodary, S. (2000) in Proceedings of SPIE: In Vitro Diagnostic Instrumentation (Cohn, G. E., Ed.) pp 128-137, Bellingham, Wash. Initial polarization experiments were performed in order to determine dissociation constants (Kd) between IAP protein BIR domains and fluorescent probes. Samples for fluorescence polarization affinity measurements were prepared by addition of serial dilutions of MLXBIR3SG, XIAP-BIR3, cIAP1XBIR3, or cIAP2XBIR3 in polarization buffer (50 mM Tris [pH 7.2], 120 mM NaCl, 1% bovine globulins, 5 mM DTT and 0.05% octylglucoside) to 5 nM 5-carboxyflourescein (5-FAM)-conjugated AVP-diphenylalanine-AKK (AVP-diPhe-FAM). The resulting reactions were incubated for 30 minutes at room temperature in 384-well black HE96 plates (Molecular Devices Corp.; Sunnyvale, Calif.) and fluorescence values were measured using standard filters for the fluorescein fluorophore (λex=485 nm, λem=530 nm). Fluorescence polarization values were plotted as a function of the protein concentration and the 50% effective concentration (EC50) values were obtained by fitting the data to a four-parameter equation using KaleidaGraph software (Synergy Software; Reading, Pa.). The apparent Kd values were determined from the EC50 values.
(§2) Inhibition constants (Ki) for the antagonists were determined by addition of 0.06 μM MLXBIR3SG, 0.5 μM XIAP-BIR3, 0.2 μM cIAP1XBIR3 or 0.4 μM cIAP2XBIR3 to wells containing 1:3 serial dilutions of the antagonists, and 5 nM AVP-diPhe-FAM probe in the polarization buffer. After a 10 to 30-minute incubation period, the fluorescence value of each sample was measured. Fluorescence polarization values were plotted as a function of the antagonist concentration, and the 50% inhibitory concentration (IC50) values were determined by fitting the data to a four-parameter equation using KaleidaGraph software. The Ki values for the antagonists were determined from the IC50 values (Keating et al. 2000).

[2] = molecular target: T2, cIAP1XBIR3 (Homo sapiens, UniProt Q13490, C308S/R332G/S292A); assay: Fluorescence polarization peptide binding assay, cIAP1XBIR3; details: 0.2 μM cIAP1XBIR3, 5 nM AVP-diPhe-FAM probe; for Ki: Ki determined from IC50
T2 construct: made in house
T2 sequence (Q13490 with tags, fused parts or gaps S292A/C308S/R332G): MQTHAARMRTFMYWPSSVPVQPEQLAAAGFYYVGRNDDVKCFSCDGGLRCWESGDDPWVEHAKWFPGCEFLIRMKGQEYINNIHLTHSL
Experimental: (§3) Similar cIAP1-BIR3/XIAP-BIR3 and cIAP2-BIR3/XIAP-BIR3 chimeric proteins, cIAP1XBIR3 and cIAP2XBIR3, respectively, were engineered, expressed, and purified in a similar fashion to MLXBIR3SG. As with MLXBIR3SG, the amino acid sequences of these BIR domains retain the native cIAP peptide-binding sites.
as §1, §2

[3] = molecular target: T3, cIAP2XBIR3 (Homo sapiens, UniProt Q13489, C294S/R318G/S278A); assay: Fluorescence polarization peptide binding assay, cIAP2XBIR3; details: 0.4 μM cIAP2XBIR3, 5 nM AVP-diPhe-FAM probe
T3 construct: made in house
T3 sequence (Q13489 with tags, fused parts or gaps S278A/C294S/R318G): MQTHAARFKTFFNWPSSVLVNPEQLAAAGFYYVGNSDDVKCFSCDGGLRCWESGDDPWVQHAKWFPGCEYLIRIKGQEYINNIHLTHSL
Experimental: as §3
Polarization experiments were performed on an Analyst HT 96-384 (Molecular Devices Corp.) according to the procedure of Keating, S. M., Marsters, J, Beresini, M., Ladner, C., Zioncheck, K., Clark, K., Arellano, F., and Bodary, S. (2000) in Proceedings of SPIE: In Vitro Diagnostic Instrumentation (Cohn, G. E., Ed.) pp 128-137, Bellingham, Wash. Initial polarization experiments were performed in order to determine dissociation constants (Kd) between IAP protein BIR domains and fluorescent probes. […] The resulting reactions were incubated for 30 minutes at room temperature in 384-well black HE96 plates (Molecular Devices Corp.; Sunnyvale, Calif.) and fluorescence values were measured using standard filters for the fluorescein fluorophore (λex=485 nm, λem=530 nm). […] The apparent Kd values were determined from the EC50 values. […]

[4] = molecular target: T4, XIAP-BIR3 (Homo sapiens, UniProt P98170); assay: Fluorescence polarization peptide binding assay, XIAP-BIR3; details: 0.5 μM XIAP-BIR3, 5 nM AVP-diPhe-FAM probe; for Ki: Ki determined from IC50, read-out: XIAPBIR3 Ki; for IC50: read-out: XIAPBIR3 IC50
T4 construct: serial dilutions of MLXBIR3SG, XIAP-BIR3, cIAP1XBIR3, or cIAP2XBIR3
T4 sequence (P98170 241-356 limits assumed): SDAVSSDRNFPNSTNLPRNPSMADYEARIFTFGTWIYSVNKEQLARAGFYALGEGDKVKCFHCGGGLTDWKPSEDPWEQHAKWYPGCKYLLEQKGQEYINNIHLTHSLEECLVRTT
Experimental: as §1, §2

| IC50 [1] | Ki [1] | IC50 [2] | Ki [2] | IC50 [3] | Ki ([3]; Ki determined from IC50) | Ki [4] | IC50 [4] | SMILES |
| --- | --- | --- | --- | --- | --- | --- | --- | --- |
| 158 nM | 36 nM | 461 nM | 71.3 nM | 502 nM | 109 nM | 90.5 nM | 508 nM | CN[C@@H](C)C(=O)N[C@H](C(=O)N1CCC[C@H]1c1cc2ccnc(-c3ccccc3)c2[nH]1)C1CCOCC1 [compound 1] |
| 139 nM | 31.7 nM | – | – | – | – | 91.5 nM | 514 nM | CN[C@@H](C)C(=O)N[C@H](C(=O)N1CCC[C@H]1c1cc2nc(C)nc(-c3ccccc3)c2[nH]1)C1CCCCC1 [compound 5] |
| 113 nM | 25.7 nM | – | – | – | – | 85.6 nM | 481 nM | CN[C@@H](C)C(=O)N[C@H](C(=O)N1CCC[C@H]1c1cc2ccnc(-c3ccc(F)cc3)c2[nH]1)C1CCOCC1 [compound 7] |
| 62 nM | 14.1 nM | – | – | – | – | 64.9 nM | 364 nM | CN[C@@H](C)C(=O)N[C@H](C(=O)N1CCC[C@H]1c1cc2nc(C)nc(-c3ccc(F)cc3)c2[nH]1)C1CCCCC1 [compound 9] |
| 91 nM | 20.7 nM | – | – | – | – | 63.8 nM | – | CN[C@@H](C)C(=O)N[C@H](C(=O)N1CCC[C@H]1c1cc2ccnc(-c3ccccc3)c2[nH]1)C1CCCCC1 [compound 13] |

Further lines, the compound ahead of its results:

| SMILES | IC50 [1] | Ki [1] | IC50 [2] | Ki [2] | IC50 [3] | Ki ([3]; Ki determined from IC50) | Ki [4] | IC50 [4] |
| --- | --- | --- | --- | --- | --- | --- | --- | --- |
| CN[C@@H](C)C(=O)N[C@H](C(=O)N1CCC[C@H]1c1cc2ncnc(-c3ccccc3)c2[nH]1)C1CCCCC1 [compound 3] | 131 nM | 29.8 nM | – | – | – | – | 79.2 nM | 445 nM |
| CN[C@@H](C)C(=O)N[C@H](C(=O)N1CCC[C@H]1c1cc2ncnc(-c3ccccc3)c2[nH]1)C1CCOCC1 [compound 4] | 156 nM | 35.6 nM | – | – | – | – | 76.9 nM | 434 nM |
| CN[C@@H](C)C(=O)N[C@H](C(=O)N1CCC[C@H]1c1cc2nc(C)nc(-c3ccccc3)c2[nH]1)C1CCOCC1 [compound 6] | 359 nM | 81.9 nM | – | – | – | – | 201 nM | 1130 nM |
| CN[C@@H](C)C(=O)N[C@H](C(=O)N1CCC[C@H]1c1cc2nc(C)nc(-c3ccc(F)cc3)c2[nH]1)C1CCOCC1 [compound 8] | 108 nM | 24.6 nM | – | – | – | – | 89 nM | 500 nM |
| CN[C@@H](C)C(=O)N[C@H](C(=O)N1CCC[C@H]1c1cc2ccnc(-c3ccc(F)cc3)c2[nH]1)C1CCCCC1 [compound 10] | 99.3 nM | 22.6 nM | – | – | – | – | 102 nM | 574 nM |
| CN[C@@H](C)C(=O)N[C@H](C(=O)N1CCC[C@H]1c1cc2ccnc(-c3ccccc3Cl)c2[nH]1)C1CCOCC1 [compound 11] | 648 nM | 148 nM | 194 nM | 30.1 nM | – | – | 121 nM | 682 nM |
| CN[C@@H](C)C(=O)N[C@H](C(=O)N1CCC[C@H]1c1cc2ccnc(-c3ccccc3)c2[nH]1)c1ccccc1 [compound 12] | 144 nM | 32.9 nM | – | – | – | – | 64.4 nM | – |

Reference: US20110218211A1, “AZAINDOLE INHIBITORS OF IAP” (Genentech, Inc., priority 2008, published 2011)
